Patent publication US5994308A, “Broad spectrum antimicrobial peptides containing a tryptophan triplet and methods of use” (Board of Trustees of Southern Illinois University, priority 1997, dated 1999)
Where a SMILES comes first, the peptide text is derived from it.

Columns and labels:
[1] = tested on: Aspergillus fumigatus; assay type: cell-based; conditions: 24 h
Procedure: (§1) The minimum inhibitory concentration (MIC) was determined by growing fungal strains in YG media until the fungi reached logarithmic phase. The cells were diluted in YG medium then placed in a 96-well plate along with a series of 2-fold dilutions of the peptides. The plate was then incubated at 37° C. for 24 hours. Minimum inhibitory growth was defined as the lowest concentration at which there was no fungal growth.

[2] = tested on: Candida albicans; assay type: cell-based; conditions: 24 h
Procedure: as §1

CC(C)C[C@H](NC(=O)[C@H](Cc1ccccc1)NC(=O)[C@@H]1CCCN1C(=O)[C@H](Cc1c[nH]c2ccccc12)NC(=O)[C@H](Cc1c[nH]c2ccccc12)NC(=O)[C@H](Cc1c[nH]c2ccccc12)NC(=O)[C@@H]1CCCN1C(=O)[C@H](Cc1ccccc1)NC(=O)[C@H](CCCNC(=N)N)NC(=O)[C@H](CCCNC(=N)N)NC(=O)[C@@H](N)C(C)C)C(=O)N[C@@H](CCCNC(=N)N)C(=O)N[C@@H](CCCNC(=N)N)C(=O)O [Peptide 1, VRRFPWWWPFLRR]
MINIMUM INHIBITORY CONCENTRATION Aspergillus fumigatus [1]: 250 µg/mL
MINIMUM INHIBITORY CONCENTRATION Candida albicans [2]: 1000 µg/mL

CC(C)C[C@H](NC(=O)[C@H](Cc1ccccc1)NC(=O)[C@@H]1CCCN1C(=O)[C@H](Cc1c[nH]c2ccccc12)NC(=O)[C@H](Cc1c[nH]c2ccccc12)NC(=O)[C@H](Cc1c[nH]c2ccccc12)NC(=O)[C@@H]1CCCN1C(=O)[C@H](Cc1ccccc1)NC(=O)[C@@H](N)CCCNC(=N)N)C(=O)N[C@@H](CCCNC(=N)N)C(=O)O [Peptide 3, RFPWWWPFLR] (H-RFPWWWPFLR-OH)
MINIMUM INHIBITORY CONCENTRATION Aspergillus fumigatus [1]: 500 µg/mL

N[C@@H](Cc1ccccc1)C(=O)N1CCC[C@H]1C(=O)N[C@@H](Cc1c[nH]c2ccccc12)C(=O)N[C@@H](Cc1c[nH]c2ccccc12)C(=O)N[C@@H](Cc1c[nH]c2ccccc12)C(=O)N1CCC[C@H]1C(=O)N[C@@H](Cc1ccccc1)C(=O)O [Peptide 4, FPWWWPF] (H-FPWWWPF-OH)
MINIMUM INHIBITORY CONCENTRATION Aspergillus fumigatus [1]: 500 µg/mL
